Measurements published in patent US10670605B2, “Cysteine reactive probes and uses thereof” (The Scripps Research Institute, priority 2015, dated 2020).
Where “and” joins values, the source holds several entries; their conditions need not be identical. Identical values can stand only once. Each block holds one compound with its values, some of them ahead of it.

Columns and labels:
Test in all cases: Competitive isoTOP-ABPP, cell lysates;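 on isoTOP-ABPP reactivity profile ratio, P68036 C86: Heavy/light ratio DMSO over fragment-treated so higher means more cysteine engagement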
Format in all cases: binding
PDE12 C108 (Q6L8Q7) = biological target: T1, PDE12 C108 (Q6L8Q7) (Homo sapiens, UniProt Q6L8Q7); settings: for isoTOP-ABPP reactivity ratio, Q6L8Q7_C108 / isoTOP-ABPP reactivity profile ratio, Q6L8Q7_C108: 500 μm
T1 sequence (Q6L8Q7 43-609): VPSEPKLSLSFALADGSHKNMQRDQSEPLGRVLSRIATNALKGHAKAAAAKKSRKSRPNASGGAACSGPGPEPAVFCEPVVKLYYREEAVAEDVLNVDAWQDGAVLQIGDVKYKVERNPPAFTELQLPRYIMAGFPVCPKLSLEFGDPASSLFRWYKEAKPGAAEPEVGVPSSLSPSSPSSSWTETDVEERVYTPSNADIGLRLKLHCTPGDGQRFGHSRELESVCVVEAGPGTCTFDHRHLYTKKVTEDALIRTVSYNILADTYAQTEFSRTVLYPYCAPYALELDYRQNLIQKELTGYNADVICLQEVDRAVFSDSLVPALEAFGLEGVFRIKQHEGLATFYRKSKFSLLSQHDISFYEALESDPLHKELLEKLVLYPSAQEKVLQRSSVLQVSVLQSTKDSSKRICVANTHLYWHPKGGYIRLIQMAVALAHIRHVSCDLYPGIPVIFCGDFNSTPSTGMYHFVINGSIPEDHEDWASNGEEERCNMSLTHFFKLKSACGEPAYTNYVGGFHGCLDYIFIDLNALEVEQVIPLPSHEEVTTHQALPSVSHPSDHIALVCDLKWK

IRF4 C194 (Q15306) = biological target: T2, IRF4 C194 (Q15306) (Homo sapiens, UniProt Q15306); settings: for isoTOP-ABPP ratio (reactivity profile), Q15306_C194: 500 μm in-vitro ramos; for isoTOP-ABPP reactivity ratio, Q15306_C194 / isoTOP-ABPP reactivity profile ratio, Q15306_C194: 500 μm, in-vitro_ramos
T2 sequence (Q15306 1-451): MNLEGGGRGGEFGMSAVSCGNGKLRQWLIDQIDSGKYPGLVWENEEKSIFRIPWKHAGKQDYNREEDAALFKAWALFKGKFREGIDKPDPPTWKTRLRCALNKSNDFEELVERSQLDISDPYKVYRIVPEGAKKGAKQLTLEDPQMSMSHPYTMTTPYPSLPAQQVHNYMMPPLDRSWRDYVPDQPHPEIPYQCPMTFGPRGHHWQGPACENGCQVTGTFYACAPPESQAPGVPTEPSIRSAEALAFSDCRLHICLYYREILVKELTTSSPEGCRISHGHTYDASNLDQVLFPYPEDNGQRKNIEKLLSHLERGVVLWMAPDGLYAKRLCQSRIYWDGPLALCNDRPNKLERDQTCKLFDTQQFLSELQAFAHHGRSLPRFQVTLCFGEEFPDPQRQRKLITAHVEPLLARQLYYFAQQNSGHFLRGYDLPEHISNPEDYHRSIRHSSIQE

UBE2L3 C86 (P68036) = UBE2L3 C86 (P68036) (Homo sapiens, UniProt P68036); settings: for isoTOP-ABPP ratio (reactivity profile), P68036_C86: 500 μm in-vitro ramos_231; for isoTOP-ABPP reactivity ratio, P68036_C86 / isoTOP-ABPP reactivity profile ratio, P68036_C86: 500 μm;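 on isoTOP-ABPP reactivity profile ratio, P68036 C86: Heavy/light ratio DMSO over fragment-treated so higher means more cysteine engagement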
IDH2 C308 (P48735) = biological target: T3, IDH2 C308 (P48735) (Homo sapiens, UniProt P48735); settings: for isoTOP-ABPP reactivity ratio, P48735_C308 / isoTOP-ABPP reactivity profile ratio, P48735_C308: 500 μm
T3 sequence (P48735 40-452): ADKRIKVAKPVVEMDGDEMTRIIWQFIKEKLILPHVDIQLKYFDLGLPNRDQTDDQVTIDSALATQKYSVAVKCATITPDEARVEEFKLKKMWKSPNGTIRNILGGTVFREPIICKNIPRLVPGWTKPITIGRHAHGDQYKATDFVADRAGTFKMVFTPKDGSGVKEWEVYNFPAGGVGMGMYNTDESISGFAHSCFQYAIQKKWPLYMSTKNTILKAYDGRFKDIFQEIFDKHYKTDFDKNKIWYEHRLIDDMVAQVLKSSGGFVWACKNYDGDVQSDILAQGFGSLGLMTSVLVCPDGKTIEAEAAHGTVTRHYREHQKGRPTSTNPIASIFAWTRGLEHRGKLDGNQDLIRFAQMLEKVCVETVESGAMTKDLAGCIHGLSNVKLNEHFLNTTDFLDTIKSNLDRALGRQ

MGMT C150 (P16455) = biological target: T4, MGMT C150 (P16455) (Homo sapiens, UniProt P16455); settings: for isoTOP-ABPP reactivity ratio, P16455_C150 / isoTOP-ABPP reactivity profile ratio, P16455_C150: 500 μm, in-vitro_ramos
T4 sequence (P16455 1-207): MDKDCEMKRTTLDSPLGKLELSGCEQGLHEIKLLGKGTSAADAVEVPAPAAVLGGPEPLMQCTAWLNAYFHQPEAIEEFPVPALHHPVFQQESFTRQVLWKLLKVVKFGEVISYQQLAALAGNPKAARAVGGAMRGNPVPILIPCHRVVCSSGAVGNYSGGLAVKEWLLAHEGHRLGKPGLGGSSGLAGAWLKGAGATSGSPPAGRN

isoTOP-ABPP ratio (reactivity profile), Q6L8Q7_C108 (PDE12 C108 (Q6L8Q7); 500 μm in-vitro ramos): 1.3
isoTOP-ABPP ratio (reactivity profile), Q6L8Q7_C108 (PDE12 C108 (Q6L8Q7); 500 μm in-vitro ramos_231): 0.5
isoTOP-ABPP ratio (reactivity profile), Q15306_C194 (IRF4 C194 (Q15306)): 1.0
isoTOP-ABPP ratio (reactivity profile), P68036_C86 (UBE2L3 C86 (P68036)): 1.2 and 0.9
isoTOP-ABPP ratio (reactivity profile), P48735_C308 (IDH2 C308 (P48735); 500 μm in-vitro ramos_231): 1.9 and 1.0
isoTOP-ABPP ratio (reactivity profile), P16455_C150 (MGMT C150 (P16455); 500 μm in-vitro ramos): 2.3
isoTOP-ABPP ratio (reactivity profile), P16455_C150 (MGMT C150 (P16455); 500 μm in-vitro ramos_231): 1.0
Structure (SMILES): CC(C)CCOCCNC(=O)CCl [compound 27]

isoTOP-ABPP ratio (reactivity profile), Q6L8Q7_C108 (PDE12 C108 (Q6L8Q7); 500 μm in-vitro ramos): 1.2
isoTOP-ABPP ratio (reactivity profile), Q6L8Q7_C108 (PDE12 C108 (Q6L8Q7); 500 μm in-vitro ramos_231): 1.0
isoTOP-ABPP ratio (reactivity profile), Q15306_C194 (IRF4 C194 (Q15306)): 1.1
isoTOP-ABPP ratio (reactivity profile), P68036_C86 (UBE2L3 C86 (P68036)): 1.4
isoTOP-ABPP ratio (reactivity profile), P48735_C308 (IDH2 C308 (P48735); 500 μm in-vitro ramos_231): 0.9
isoTOP-ABPP ratio (reactivity profile), P16455_C150 (MGMT C150 (P16455); 500 μm in-vitro ramos): 1.7
Structure (SMILES): COc1ccccc1OCCNC(=O)CCl [compound 28]

isoTOP-ABPP ratio (reactivity profile), Q6L8Q7_C108 (PDE12 C108 (Q6L8Q7); 500 μm in-vitro ramos): 1.1
isoTOP-ABPP reactivity ratio, Q6L8Q7_C108 (PDE12 C108 (Q6L8Q7); in-vitro_ramos): 1.6
isoTOP-ABPP reactivity ratio, Q15306_C194 (IRF4 C194 (Q15306)): 1.7
isoTOP-ABPP reactivity ratio, P68036_C86 (UBE2L3 C86 (P68036); in-vitro_ramos): 1.5
isoTOP-ABPP ratio (reactivity profile), P48735_C308 (IDH2 C308 (P48735); 500 μm in-vitro ramos): 0.7
isoTOP-ABPP reactivity ratio, P16455_C150 (MGMT C150 (P16455)): 5.1
Structure (SMILES): CCN(CC)c1ccc(S(N)(=O)=O)cc1NC(=O)CCl [compound 30]

isoTOP-ABPP reactivity ratio, Q6L8Q7_C108 (PDE12 C108 (Q6L8Q7); in-vitro_ramos_231): 2.0
isoTOP-ABPP reactivity ratio, Q15306_C194 (IRF4 C194 (Q15306)): 1.1
isoTOP-ABPP reactivity ratio, P68036_C86 (UBE2L3 C86 (P68036); in-vitro_ramos): 1.3
isoTOP-ABPP reactivity ratio, P68036_C86 (UBE2L3 C86 (P68036); in-vitro_ramos_231): 1.7
isoTOP-ABPP reactivity ratio, P48735_C308 (IDH2 C308 (P48735); in-vitro_ramos): 1.1
isoTOP-ABPP reactivity ratio, P48735_C308 (IDH2 C308 (P48735); in-vitro_ramos_231): 1.3
isoTOP-ABPP reactivity ratio, P16455_C150 (MGMT C150 (P16455)): 2.8
Structure (SMILES): C=CC(=O)N(Cc1cccnc1)c1cc(C(F)(F)F)cc(C(F)(F)F)c1 [compound 31]

isoTOP-ABPP reactivity ratio, Q6L8Q7_C108 (PDE12 C108 (Q6L8Q7); in-vitro_ramos): 6.8
isoTOP-ABPP reactivity ratio, Q6L8Q7_C108 (PDE12 C108 (Q6L8Q7); in-vitro_ramos_231): 0.9
isoTOP-ABPP reactivity ratio, Q15306_C194 (IRF4 C194 (Q15306)): 2.1
isoTOP-ABPP reactivity ratio, P68036_C86 (UBE2L3 C86 (P68036); in-vitro_ramos): 1.5
isoTOP-ABPP reactivity ratio, P48735_C308 (IDH2 C308 (P48735); in-vitro_ramos_231): 1.2
isoTOP-ABPP reactivity ratio, P16455_C150 (MGMT C150 (P16455)): 1.8
Structure (SMILES): C=CC(=O)Nc1cc(F)c(N2CCN(C(=O)OC(C)(C)C)CC2)c(F)c1 [compound 38]

isoTOP-ABPP reactivity profile ratio, Q6L8Q7_C108 (PDE12 C108 (Q6L8Q7); in-vitro_ramos): 6.8
isoTOP-ABPP reactivity profile ratio, Q6L8Q7_C108 (PDE12 C108 (Q6L8Q7); in-vitro_ramos_231): 1.4
isoTOP-ABPP reactivity profile ratio, Q15306_C194 (IRF4 C194 (Q15306)): 1.4
isoTOP-ABPP reactivity profile ratio, P68036_C86 (UBE2L3 C86 (P68036); in-vitro_ramos): 1.3
isoTOP-ABPP reactivity profile ratio, P68036_C86 (UBE2L3 C86 (P68036); in-vitro_ramos_231): 0.8
isoTOP-ABPP reactivity profile ratio, P48735_C308 (IDH2 C308 (P48735); in-vitro_ramos_231): 1.1
isoTOP-ABPP reactivity profile ratio, P16455_C150 (MGMT C150 (P16455)): 2.2
Structure (SMILES): O=C(CCl)Nc1ccc(-c2ccccc2)cc1 [compound 52]

isoTOP-ABPP reactivity profile ratio, Q6L8Q7_C108 (PDE12 C108 (Q6L8Q7); in-vitro_ramos): 1.1
isoTOP-ABPP reactivity profile ratio, Q15306_C194 (IRF4 C194 (Q15306)): 1.0
isoTOP-ABPP reactivity profile ratio, P68036_C86 (UBE2L3 C86 (P68036); in-vitro_ramos): 1.0
isoTOP-ABPP reactivity profile ratio, P68036_C86 (UBE2L3 C86 (P68036); in-vitro_ramos_231): 1.0
isoTOP-ABPP reactivity profile ratio, P48735_C308 (IDH2 C308 (P48735); in-vitro_ramos_231): 0.5
isoTOP-ABPP reactivity profile ratio, P16455_C150 (MGMT C150 (P16455)): 1.1
Structure (SMILES): C=CC(=O)N1CCC(Cc2ccccc2)CC1 [compound 53]
